Measurements reported in patent publication US20260125368A1, “SALT OF GLP-1R AGONIST, PREPARATION METHOD THEREFOR AND USE THEREOF” (MINDRANK AI LTD., priority 2022, published 2026).

Test: Hygroscopic behavior test by dynamic vapor sorption (DVS)
Assay type: physicochemical
Conditions: 25° C.; for Did the crystal form change before and after the test?: 0-90% RH; for Hygroscopicity / 80% RH sample weight change (%): 80% RH; for 80% RH sample weight change (%): adsorption 0-90% RH
From the text: The experimental method for characterizing an acid salt or a base salt of compound I by dynamic vapor sorption (DVS) was as follows: A small amount of a powder of the acid salt or the base salt of compound I was taken and placed into a precise sample tray that matches the instrument. After the sample was loaded, the sample tray was sent into the instrument for analysis. In the present disclosure, the instrument model used in the dynamic vapor sorption analysis was Intrinsic PLUS; the experimental parameter was set as follows: a constant temperature of 25° C. was set; the mass percent change rate per unit time (dm/dt)=0.02%/min was used as a criterion for determining that a balance is achieved; the program humidity change cycle was set as follows: the initial relative humidity was 0%, and the endpoint relative humidity was 90%.
The hygroscopic behavior of a compound affects the production, storage, stability, and quality of the drug.

Row | Did the crystal form change before and after the test? | Hygroscopicity | 80% RH sample weight change (%) | SMILES
1 | no solid form change was observed and No | slightly hygroscopic | 0.71% | N#Cc1ccc(OCc2cccc(OC3CCN(Cc4nc5ccc(C(=O)O)cc5n4C[C@@H]4CCO4)CC3)n2)c(F)c1 [Free form of compound I-2, (S)-2-((4-((6-((4-cyano-2-fluorophenoxy)methyl)pyridin-2-yl)oxy)piperidin-1-yl)methyl)-1-(oxetan-2-ylmethyl)-1H-benzo[d]imidazole-6-carboxylic acid]
2 | no solid form change was observed and No | slightly hygroscopic | 0.90% | O=C(O)c1ccc2nc(CN3CCC(Oc4cccc(COc5ccc(Cl)cc5F)n4)CC3)n(C[C@@H]3CCO3)c2c1 [Free form of compound I-1, (S)-2-((4-((6-((4-chloro-2-fluorophenoxy)methyl)pyridin-2-yl)oxy)piperidin-1-yl)methyl)-1-(oxetan-2-ylmethyl)-1H-benzo[d]imidazole-6-carboxylic acid]
